{"source": "paper PMC11040934", "about": "“PI3Kγδ inhibition suppresses key disease features in a rat model of asthma” (Respiratory Research, 2024)", "key": {"rat PI3Kγ": {"target": "rat PI3Kγ (Rattus norvegicus, UniProt D3ZFJ0)", "sequence (D3ZFJ0 1-1102)": "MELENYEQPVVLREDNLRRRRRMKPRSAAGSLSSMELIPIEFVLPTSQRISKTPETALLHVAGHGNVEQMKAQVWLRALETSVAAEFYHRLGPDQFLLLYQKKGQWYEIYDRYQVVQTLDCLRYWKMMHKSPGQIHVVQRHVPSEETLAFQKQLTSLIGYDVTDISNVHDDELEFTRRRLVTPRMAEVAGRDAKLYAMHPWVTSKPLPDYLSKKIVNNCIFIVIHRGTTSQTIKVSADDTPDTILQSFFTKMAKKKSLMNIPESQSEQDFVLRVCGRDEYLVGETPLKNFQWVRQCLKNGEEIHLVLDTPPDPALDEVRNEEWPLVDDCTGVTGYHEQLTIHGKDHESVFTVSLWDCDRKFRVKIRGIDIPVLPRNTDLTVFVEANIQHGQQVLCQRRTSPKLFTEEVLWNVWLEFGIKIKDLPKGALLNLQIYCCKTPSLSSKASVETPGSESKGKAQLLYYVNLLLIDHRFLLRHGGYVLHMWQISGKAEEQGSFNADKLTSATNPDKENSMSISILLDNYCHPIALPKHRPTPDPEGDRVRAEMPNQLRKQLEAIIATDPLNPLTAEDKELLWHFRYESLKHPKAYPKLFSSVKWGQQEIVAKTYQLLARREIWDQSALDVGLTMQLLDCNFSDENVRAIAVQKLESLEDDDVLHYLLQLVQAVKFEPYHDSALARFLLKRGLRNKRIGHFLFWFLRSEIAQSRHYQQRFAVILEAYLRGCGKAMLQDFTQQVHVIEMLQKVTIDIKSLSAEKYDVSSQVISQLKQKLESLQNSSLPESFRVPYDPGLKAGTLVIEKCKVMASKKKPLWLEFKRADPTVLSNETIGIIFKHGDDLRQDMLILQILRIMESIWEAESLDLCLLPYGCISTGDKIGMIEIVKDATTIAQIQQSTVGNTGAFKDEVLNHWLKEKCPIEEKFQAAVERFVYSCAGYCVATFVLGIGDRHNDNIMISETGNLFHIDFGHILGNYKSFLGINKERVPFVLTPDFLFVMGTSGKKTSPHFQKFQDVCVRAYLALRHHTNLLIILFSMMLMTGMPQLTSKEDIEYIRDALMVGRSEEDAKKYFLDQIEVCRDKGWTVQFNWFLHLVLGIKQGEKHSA", "assay": "PI3K γ assay: CXCL1/CINC-1-stimulated CD11b expression on rat whole blood neutrophils (FACS)", "format": "cell-based", "details": "mean ± SEM, n = 3", "method": "PI3K γ assay: whole blood from male Sprague Dawley rat was collected in heparin coated tubes and pre-treated (1 hr., 37 °C, 5% CO2) with vehicle DMSO or PI3K inhibitors followed by stimulation with Rat CXCL1/CINC-1 (515-CN-050, R&D) at 500 ng/mL (EC80 determined in house; 1 hr., RT). Next, cells were stained with Fc block (550,273, BD bioscience, 1:100; 20 mins, RT), CD45R-B220-PeCy7 (HIS24) (25–0460-82, eBioscience, 1:100), CD43-PE (W3/13) (202,812, Biolegend, 1:100), HIS48-FITC (11–0570-82, eBioscience, 1:100), CD11b-APC (562,102, BD Bioscience, 1:100). Cells were lysed and fixed with BD FACS lysing solution (349,202, BD Biosciences; 45 mins, RT) before FACS acquisition (BD LSRFortessa™). Data were analysed using FlowJo 9.9 software (TreeStar). FACS gating strategy: lymphocytes (FSC-A vs SSC-A), doublets exclusion (FSC-W vs FSC-H), neutrophil identification B220-, HIS48hi, CD43hi, SSC-Ahi, geom. MFI for CD11b on neutrophils. IC50 values were determined in Graph Pad through a nonlinear fit on log transform data: log inhibitor vs response, variable slope, 4 parameters. Fraction unbound in diluted whole blood is calculated using the following equation: fu^′=DF·fub/1+DF-1·fub where fu’ is the fraction unbound in diluted whole blood; fub is the fraction unbound in undiluted whole blood; DF is the dilution factor. Fraction unbound in 100% whole blood (fub) is calculated as fup/BP, where fup is the experimentally determined fraction unbound in undiluted plasma and BP is the experimentally determined blood to plasma partition ratio of drug Table 1."}, "rat PI3Kδ": {"target": "T1, rat PI3Kδ (Rattus norvegicus, UniProt A0A8I5Y949)", "T1 sequence (A0A8I5Y949 1-1047)": "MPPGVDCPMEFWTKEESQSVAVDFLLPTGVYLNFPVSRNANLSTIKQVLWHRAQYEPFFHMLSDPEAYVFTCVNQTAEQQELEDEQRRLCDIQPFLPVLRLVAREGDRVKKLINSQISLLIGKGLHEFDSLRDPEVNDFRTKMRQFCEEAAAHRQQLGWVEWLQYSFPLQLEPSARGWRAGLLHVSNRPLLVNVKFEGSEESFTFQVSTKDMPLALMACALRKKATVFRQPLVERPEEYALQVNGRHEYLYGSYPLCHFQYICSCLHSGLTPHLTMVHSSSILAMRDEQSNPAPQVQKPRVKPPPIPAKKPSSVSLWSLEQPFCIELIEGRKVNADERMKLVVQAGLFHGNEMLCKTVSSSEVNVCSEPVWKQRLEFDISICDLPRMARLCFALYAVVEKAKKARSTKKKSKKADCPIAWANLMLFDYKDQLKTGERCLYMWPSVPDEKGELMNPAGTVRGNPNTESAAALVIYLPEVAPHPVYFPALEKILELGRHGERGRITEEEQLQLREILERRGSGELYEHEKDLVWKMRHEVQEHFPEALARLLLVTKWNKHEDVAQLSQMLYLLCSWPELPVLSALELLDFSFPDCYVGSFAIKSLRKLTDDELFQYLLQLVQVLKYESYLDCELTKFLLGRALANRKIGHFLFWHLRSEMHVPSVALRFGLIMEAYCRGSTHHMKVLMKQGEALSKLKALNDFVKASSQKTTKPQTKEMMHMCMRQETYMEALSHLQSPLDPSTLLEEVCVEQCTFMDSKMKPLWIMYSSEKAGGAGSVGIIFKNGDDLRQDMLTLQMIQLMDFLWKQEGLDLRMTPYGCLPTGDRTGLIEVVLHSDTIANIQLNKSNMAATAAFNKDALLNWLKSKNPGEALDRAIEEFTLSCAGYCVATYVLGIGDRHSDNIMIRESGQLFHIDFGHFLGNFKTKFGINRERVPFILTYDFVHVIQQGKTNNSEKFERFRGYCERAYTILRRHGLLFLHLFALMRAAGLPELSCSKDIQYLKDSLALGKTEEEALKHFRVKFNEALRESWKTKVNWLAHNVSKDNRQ", "assay": "PI3K δ assay: anti-IgM-stimulated CD86 expression on rat splenic B cells (FACS)", "format": "cell-based", "details": "mean ± SEM, n = 3", "method": "(§1) PI3K δ assay: single cell suspension was obtained from the spleen of male Sprague Dawley rat; cells were cultured in RPMI containing heat-inactivated 10% FBS, pre-treated (1 hr., 37 °C, 5% CO2) with vehicle DMSO or PI3K inhibitors, followed by stimulation with AffiniPure F(ab’)2 Fragment Goat Anti-Rat IgM, μ chain specific, Jackson Immunoresearch (112–006-075) at 5 μg/mL (EC80 determined in house; 20–22 hrs). Then, cells were washed with FACS buffer (2% FBS, […]) and stained (15 mins, 4 °C) with Fc block (1:100, 550,273, BD bioscience), LIVE/DEAD Fixable Aqua Dead Cell Stain Kit (L34957, Invitrogen, 1:300), CD45R (B220)-PeCy7 (HIS24) (25–0460-82, eBioscience, 1:100), CD3-AF647 (IF4) (201,408, Biolegend, 1:100), CD86-FITC (24F) (200,305, Biolegend, 1:50). Cells were acquired on the Flow Cytometer (BD LSRFortessa™) and analysed using FlowJo 9.9 software (TreeStar). FACS gating strategy: lymphocytes (FSC-A vs SSC-A), doublets exclusion (FSC-W vs FSC-H), live cells (Aqua-530-), B cell identification CD3- B220 + % of positive B cells for CD86. IC50 values were determined in Graph Pad through a nonlinear fit on log transform data: log inhibitor vs response, variable slope, 4 parameters. Fraction unbound in in vitro assay is calculated using the following equation: fu^′=DF·fup/1+DF-1·fup where fu’ is the fraction unbound in assay media; fup is the experimentally determined fraction unbound in undiluted human plasma; DF is the dilution factor (fold difference between protein concentration in human plasma and assay media, using an albumin concentration of 600 μM (40 g/L) for undiluted plasma) Table 2."}, "[1]": {"assay": "Human plasma protein binding and unbound fraction in assay media", "format": "in vitro ADME", "method": "as §1"}}, "note": "Read-outs that look alike come from different tables or passages of the source."}
{"smiles": "Cc1nc(Nc2cccc(N3CCCC3=O)n2)sc1-c1cc2c(c(S(C)(=O)=O)c1)C(=O)N([C@@H](C)C1CC1)C2", "note": "[AZD8154]", "values": [{"measurement": "IC50", "setting": "rat PI3Kγ; CD11b expression on neutrophils, read-out: rat γ total IC50", "value": "28.7 ± 4.1", "unit": "nM"}, {"measurement": "IC50", "setting": "rat PI3Kγ; corrected for protein binding in the assay, read-out: rat γ free IC50", "value": "0.54 ± 0.08", "unit": "nM"}, {"measurement": "IC50", "setting": "rat PI3Kδ; CD86 expression on B cells, read-out: rat δ total IC50", "value": "10.5 ± 6.2", "unit": "nM"}, {"measurement": "IC50", "setting": "rat PI3Kδ; corrected for protein binding in the assay, read-out: rat δ free IC50", "value": "0.63 ± 0.37", "unit": "nM"}, {"measurement": "fraction unbound", "setting": "[1]; human plasma, fraction unbound, read-out: Human ppb (fu, %)", "value": 0.0063}, {"measurement": "fraction unbound", "setting": "[1]; human, assay media (PI3K δ assay), fraction unbound in assay media (δ assay, RPMI 10% FBS), read-out: Fu’", "value": 0.06}]}
